Values after ≈ are worked out from the molar mass of the structure shown.
Legend:
Format in all cases: cell-based
[1] = test system: MDA-MB-231 human breast cancer cells; assay: cell viability assay (MTT); conditions: 24 h; for viability at 1 µg/mL: read-out: Validity (%) for sample concentrations (µg/mL) 1; for viability at 10 µg/mL: read-out: Validity (%) for sample concentrations (µg/mL) 10; for viability at 31.25 µg/mL: read-out: Validity (%) for sample concentrations (µg/mL) 31.25; for viability at 62.5 µg/mL: read-out: Validity (%) for sample concentrations (µg/mL) 62.5; for viability at 125 µg/mL: read-out: Validity (%) for sample concentrations (µg/mL) 125; for viability at 250 µg/mL: read-out: Validity (%) for sample concentrations (µg/mL) 250; for viability at 500 µg/mL: read-out: Validity (%) for sample concentrations (µg/mL) 500
Procedure, shortened: (§1)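 Cells were grown in RPMI-1640 with 10% heat-inactivated FBS, seeded at 5000 cells/well, and next day exposed to fluorene derivatives at 0, 1, 10, 31.25, 62.5, 125, 250 or 500 µg/mL for 24 h. Viability was then measured by MTT, absorbance at 570 nm.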

[2] = test system: WI-38 human normal fibroblast cells; assay: cell viability assay (MTT); conditions: 24 h; for viability at 31.25 µg/mL: read-out: Validity (%) for sample concentrations (µg/mL) 31.25; for viability at 62.5 µg/mL: 62.50 µg/mL, read-out: Validity (%) for sample concentrations (µg/mL) 62.50; for viability at 125 µg/mL: read-out: Validity (%) for sample concentrations (µg/mL) 125; for viability at 250 µg/mL: read-out: Validity (%) for sample concentrations (µg/mL) 250; for viability at 500 µg/mL: read-out: Validity (%) for sample concentrations (µg/mL) 500
Procedure, shortened: as §1

[3] = test system: E. coli; assay: MIC by broth microdilution method (resazurin end point); conditions: Escherichia coli, 24 h at 37 °C
Protocol: (§2) Determination of Minimum inhibitory concentrations (MIC) of flourene derivatives was done using broth microdilution method. The procedure involved preparation of twofold dilutions of the fluorene derivatives ranging from (500–7.8 μg/mL) in sterile Mueller–Hinton broth inside the wells of 96-well microplate (Sarstedt, Germany). The inoculums of test strains prepared from fresh overnight cultures were adjusted to 0.5 McFarland standards, which equals to 1–2 × 10^8 CFU/mL for bacteria, the procedure was done according to CLSI 2012 [42]. […] For this assay the positive control agents were vancomycin (range: 0.7–50 μg/mL), gentamicin (range: 0.15–10 μg/mL) and the negative control was 1% DMSO.
(§3) For proper determination of the MIC end point resazurin dye has been used. A stock solution of resazurin sodium salt powder (Titan Biotech) was prepared at 0.02% (wt/vol) in distilled water, sterilized by filtration through a […] filter into a sterile light protected container then stored protected from light at 4 °C for up to 1 week, or at − […] for long term use, then 10–15% resazurin solution of the total volume in wells was added to each well and incubation for 1–4 h at 37 °C was done. A change in color from blue to pink indicates the growth of bacteria, and MIC was defined as the lowest concentration of the drug that prevented this change in color.

[4] = test system: K. pneumoniae; assay: as above; conditions: Klebsiella pneumoniae, 24 h at 37 °C
Protocol: as §2, §3

[5] = test system: Escherichia coli (E. coli), multidrug resistant clinical isolate; assay: agar well diffusion assay; conditions: 24 h, 500 µg/mL of tested compound
Procedure, shortened: (§4)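 Multidrug-resistant clinical isolates swabbed on Mueller–Hinton agar at about 1–5 × 10^5 CFU/mL; 0.5 cm wells received 50 μL compound at 500 μg/mL in 1% DMSO. Incubation 24 h, 37 °C for bacteria and C. albicans, 25 °C for Aspergillus; inhibition zone diameter measured in mm.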

[6] = test system: methicillin-resistant Staphylococcus aureus (MRSA); assay: agar well diffusion assay; conditions: 500 µg/mL of tested compound, 24 h
Procedure, shortened: as §4

[7] = test system: Streptococcus pneumoniae (S. pneumoniae), multidrug resistant clinical isolate; assay: agar well diffusion assay; conditions: S. pneumoniae; 500 µg/mL of tested compound; 24 h
Procedure, shortened: as §4

[8] = test system: P. aeruginosa; assay: MIC by broth microdilution method (resazurin end point); conditions: Pseudomonas aeruginosa, 24 h at 37 °C
Protocol: as §2, §3

Row | Compound | viability at 1 µg/mL [1] | viability at 10 µg/mL [1] | viability at 31.25 µg/mL [1] | viability at 62.5 µg/mL [1] | viability at 125 µg/mL [1] | viability at 250 µg/mL [1] | viability at 500 µg/mL [1] | IC50 [1] | viability at 31.25 µg/mL [2] | viability at 62.5 µg/mL [2] | viability at 125 µg/mL [2] | viability at 250 µg/mL [2] | viability at 500 µg/mL [2] | IC50 [2] | MIC [3] | MIC [4] | zone of inhibition at 500 µg/mL [5] | Mean zone of inhibition [6] | Mean zone of inhibition [7] | MIC [8]
1 | O=C1C(Cl)C(c2ccc(Cl)cc2)N1c1nc(-c2cc(Cl)cc3c2-c2ccc(Cl)cc2C3)cs1 (centres unmarked) [6c, 3-Chloro-4-(4-chlorophenyl)-1-(4-(2,7-dichloro-9H-fluoren-4-yl)thiazol-2-yl)azetidin-2-one] | 92.8% | 77.8% | 63.1% | 53.1% | 46% | 29.4% | 24.8% | 104 µg/mL (≈ 195 µM) | 94.5% | 65.9% | 63.4% | 59.5% | 55.5% | > 500 µg/mL | 62.5 µg/mL (≈ 117 µM) | 125 µg/mL (≈ 235 µM) | 15 mm |  |  | 
2 | O=C1C(Cl)C(c2ccc(Br)cc2)N1c1nc(-c2cc(Cl)cc3c2-c2ccc(Cl)cc2C3)cs1 (centres unmarked) [6d, 4-(4-Bromophenyl)-3-chloro-1-(4-(2,7-dichloro-9H-fluoren-4-yl)thiazol-2-yl)azetidin-2-one] | 93.3% | 89.1% | 75.8% | 63.3% | 53.1% | 27.7% | 24% | 169 µg/mL (≈ 293 µM) | 92% | 88.1% | 78.6% | 67.5% | 67.7% | > 500 µg/mL |  |  |  | no activity | no activity | 
3 | O=C1C(Cl)C(c2cccs2)N1c1nc(-c2cc(Cl)cc3c2-c2ccc(Cl)cc2C3)cs1 (centres unmarked) [6k, 3-Chloro-1-(4-(2,7-dichloro-9H-fluoren-4-yl)thiazol-2-yl)-4-(thiophen-2-yl)azetidin-2-one] | 96.4% | 90.7% | 78.6% | 69.6% | 51% | 33.3% | 19.1% | 131 µg/mL (≈ 260 µM) | 77.9% | 64% | 61.3% | 60.3% | 58.3% | > 500 µg/mL | 31.2 µg/mL (≈ 62 µM) |  | 14 mm |  |  | 125 µg/mL (≈ 248 µM)

Reference: article PMC7315563, “Bioactive fluorenes. Part III: 2,7-dichloro-9H-fluorene-based thiazolidinone and azetidinone analogues as anticancer and antimicrobial against multidrug resistant strains agents” (BMC Chemistry, 2020)
